Results from patent US8263637B2, “Methods for treatment of multiple myeloma using cyclopropane carboxylic acid {2-[(is)-1-(3-ethoxy-4-methoxy-phenyl)-2-methanesulfonyl-ethyl]-3-oxo-2,3-dihydro-1 h-isoindol-4-yl}-amide” (Celgene Corporation, priority 2002, dated 2012).

Tests used:
[1] = system: TNF-α production; experiment: Inhibition of TNF-α production following LPS-stimulation of human PBMC and human whole blood; format: cell-based; details: in vitro studies; relative to thalidomide
Source text: In a specific embodiment, the pharmacological properties of 3-(3,4-dimethoxy-phenyl)-3-(1-oxo-1,3-dihydro-isoindol-2-yl)-propionamide are characterized in in vitro studies. Studies examine the effects of the compound on the production of various cytokines. Inhibition of TNF-α production following LPS-stimulation of human PBMC and human whole blood by the compound is investigated in vitro. […] The pharmacological effects of 3-(3,4-dimethoxy-phenyl)-3-(1-oxo-1,3-dihydro-isoindol-2-yl)-propionamide may derive from its action as an inhibitor of the generation of inflammatory cytokines.

[2] = Cardiovascular and respiratory function in anesthetized dogs; format: in vivo, Beagle dogs
Description: The effects of 3-(3,4-dimethoxy-phenyl)-3-(1-oxo-1,3-dihydro-isoindol-2-yl)-propionamide on cardiovascular and respiratory function are investigated in anesthetized dogs. Two groups of Beagle dogs (2/sex/group) are used. One group receives three doses of vehicle only and the other receives three ascending doses of the compound (200, 400, and 800 mg/kg). In all cases, doses of the compound or vehicle are successively administered via infusion through the jugular vein separated by intervals of at least 30 minutes.
The cardiovascular and respiratory changes induced by 3-(3,4-diethoxy-phenyl)-3-(1-oxo-1,3-dihydro-isoindol-2-yl)-propionamide are minimal at all doses when compared to the vehicle control group.

## COc1ccc(C(CC(N)=O)N2Cc3ccccc3C2=O)cc1OC (stereo not drawn) [3-(3,4-dimethoxy-phenyl)-3-(1-oxo-1,3-dihydro-isoindol-2-yl)-propionamide]
[1]
  pharmacological activity profile, times more potent than thalidomide: five to fifty
[2]; all doses (200, 400, and 800 mg/kg), infusion through the jugular vein
  cardiovascular and respiratory changes compared to the vehicle control group: minimal
[2]; common to both the control and treated groups
  deviations in femoral blood flow, respiratory parameters, and Qtc interval: not considered treatment-related
[2]; higher doses
  arterial blood pressure effect at higher doses: not seen
[2]; low dose
  duration of the arterial blood pressure effect: approximately 15 minutes
[2]; low dose, statistically significant
  arterial blood pressure, difference between vehicle and treatment groups: small increase
